For 2 molecules, EC50 and IC50 results are on record in BindingDB's records for doi:10.1016/j.bmc.2006.12.026 (University of North Carolina At Chapel Hill, 2007).

By EC50 is commonly meant the midpoint of the concentration-response curve. Lower therefore signals greater potency. One may read the IC50 as the midpoint of a concentration-inhibition curve. A low value points to greater potency in that assay.

In this assay the target is T1, Nuclear receptor subfamily 1 group I member 2 (Homo sapiens, UniProt O75469).
T1 sequence (O75469 whole entry): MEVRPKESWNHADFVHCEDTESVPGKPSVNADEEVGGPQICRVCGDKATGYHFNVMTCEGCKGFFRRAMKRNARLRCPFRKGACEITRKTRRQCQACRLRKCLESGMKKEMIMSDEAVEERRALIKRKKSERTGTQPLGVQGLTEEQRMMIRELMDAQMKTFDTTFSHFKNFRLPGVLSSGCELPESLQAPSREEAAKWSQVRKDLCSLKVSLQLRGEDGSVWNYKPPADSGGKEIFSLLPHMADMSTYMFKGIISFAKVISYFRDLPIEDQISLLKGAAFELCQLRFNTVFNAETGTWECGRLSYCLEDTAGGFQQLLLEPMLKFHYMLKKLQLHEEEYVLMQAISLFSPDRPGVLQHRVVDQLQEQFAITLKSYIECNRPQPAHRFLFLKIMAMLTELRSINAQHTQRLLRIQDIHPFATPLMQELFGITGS
The assay is described as follows: Competition Ligand Binding Assay and Transient Transfection Assay. The conditions noted are these: pH 8; 22 °C. As to the method:
Polylysine YiO imaging beads (Amersham, GE Healthcare) were coated with histidine-tagged WT PXR LBD. Nonspecific binding sites were blocked with BSA. [N-Methyl-3H]-GW0438X was added to the blocked receptor-bead. The receptor-bead-radioligand mix was added directly to test compounds in 384-well plates. […] Nonspecific binding was determined in the presence of 10 uM GW0438. Data analysis was achieved using a three-parameter fit. The data were calculated as pIC50s. The pEC50 values were obtained from measurement of Luciferase reporter activity in CV-1 cells transfected with full-length hPXR.

`O=S(=O)(c1ccccc1)N(CC(F)(F)F)c1ccc(C(O)(C2CCCCC2)C(F)(F)F)cc1` (stereo not drawn) [N-[4-(1-cyclohexyl-2,2,2-trifluoro-1-hydroxyethyl)phenyl]-N-(2,2,2-trifluoroethyl)benzenesulfonamide] had a concentration giving a half-maximal response (EC50) of 3 nM. With `CCC(O)(c1ccc(N(CC(F)(F)F)S(=O)(=O)c2ccccc2)cc1)C(F)(F)F` (stereo not drawn) [N-[4-(1,1,1-trifluoro-2-hydroxybutan-2-yl)phenyl]-N-(2,2,2-trifluoroethyl)benzenesulfonamide], it took 126 nM to reach a half-maximal effect (EC50) and the half-inhibitory concentration (IC50) is 251 nM.
